Reference: patent publication US9593146B2, “CD44v6-derived peptides for treating metastasizing cancer” (AMCURE GMBH, priority 2012, dated 2017)

Key:
Met = conditions: N to A and E to A mutated pentapeptide; cited from earlier work
BSp73ASs6 cells = assay: Staining of fixed BSp73ASs6 cells with DY681-labeled peptides; type: cell-based, rat; conditions: DY681-labeled peptide for one hour
Method: (§1) ASs6 or L3.6pl cells were seeded at 5,000 cells/well of a Lab-TekR Chamber Slide™ (Nunc, Napierville, Ill., USA). On the following day the cells were washed with cold PBS and fixed with 4% Formalin for 30 min at RT. Unspecific binding was blocked with 1% BSA in PBS for 1 hour at RT. The cells were incubated for 1 hour with the DY681-labeled peptides. After three washing steps with PBS the cover slips were mounted with Fluorescence Mounting Medium (Dako, Glostrup, Denmark) and the immunofluorescence was measured by a laser scanning confocal microscope Leica TCS2 SP2 (Exton, Pa., USA) and processed using Leica confocal software. A 20× objective was used for imaging.

L3.6pl tumors = assay: In vivo / ex vivo imaging (Pearl Imager) of mice with L3.6pl tumors; conditions: for fluorescence / accumulation in the orthotopic L3.6pl tumor in vivo: 20 μg i.v., 24 h after injection
Method: In vivo imaging of the mice with the L3.6pl tumors was performed using the Pearl™ Imager (LI-COR Biosciences, Bad Homburg, Germany). The system uses two lasers (685 and 785 nm) for excitation and a charge-coupled device detector for signal detection. The laser excitation enables a deep tissue penetration. With the near-infrared detection a high sensitivity due to the reduced tissue auto-fluorescence is achieved. In order to standardize the images we made use of the Pearl Cam Software. The animals were fed with chlorophyll-reduced food to reduce the fluorescence background one week before imaging (Regime 210, safe-diets, Augy, France). Prior to imaging the mice were anesthetized with 2.0% isoflurane. Animals were placed on the heated plate of the imager and continuous delivery of isoflurane was achieved through a nose cone in the imaging drawer. Images were captured at white light, 700 and 800 nm. Animals were imaged prior to i.v. peptide injection and 24 h after injection with either DY681-labeled human v6 peptide or DY681-labeled rat v6 peptide as control. Immediately after each imaging session animals were killed, tumor, liver and spleen isolated and scanned ex vivo at white light, 700 and 800 nm.

Met and ERK [1] = assay: HGF induced activation of Met and Erk in BSp73ASs6 cells (Western blot); type: cell-based, rat; conditions: BSp73ASs6 cells induced with HGF in the presence of the labeled peptide (FIG. 3A right)
Method: (§2) Serum-starved cells (24 hours) were induced with the growth factor HGF (10 ng/mL) at 37° C. for 5 minutes. Where indicated, the cells were treated with peptides (100 ng/ml) prior to induction at 37° C. for 10 minutes (100 ng/mL CD44v6 peptide or control peptide). Following the induction with HGF, cells were washed with ice-cold phosphate-buffered saline (PBS). To detect activated Met and Erk, cells were lysed in sodium dodecyl sulfate (SDS)-sample buffer containing 100 mM dithiothreitol (DTT), boiled and subjected to western blot analysis using antibodies against phospho-Met and ERK. The loading controls were performed on the same blot after stripping (62.5 mM Tris, pH 6.8, 2% SDS, 0.8% DTT) by probing with the Met respectively ERK antibody. Blots were stained using the enhanced chemiluminescence system (Thermo Fisher Scientific, Schwerte, Germany). Bands in western blot analysis were quantified with the program Image J (National Institutes of Health).
Rat pancreatic cancer cells BSp73ASs6 (also designated Ass6) were incubated for 10 min at 37° C. with either ctrl-peptides (SEQ ID No.: 15), non-pegylated v6-peptides (SEQ ID No.: 11) and increasing concentrations of the pegylated peptides, namely PEG-rat control peptide and PEG-rat CD44v6 peptide, before induction with HGF (10 ng/ml; 5 min at 37° C.).
Activation of ERK and Met was determined by standard SDS and Western Blotting techniques using a phospho-Met and phospho-Erk specific antibody (phospho-Met clone D16 cell signaling, phospho-Erk p42/44 cell signaling)
ASs6 cells, serum starved for 24 h, were induced with HGF (10 ng/ml) at 37° C. for 5 min. Where indicated, the cells were treated with PEGylated or non-PEGylated peptides before induction at 37° C. for 10 min (150 nM). Cells were washed with phosphate-buffered saline (PBS) and lysed in boiling sodium dodecyl sulfate (SDS)-sample buffer containing 100 mM dithiothreitol (DTT). Subsequently, lysates were subjected to Western blot analysis using antibodies against phosphorylated Mek and Erk (Cell signaling). The Mek and Erk loading control were performed on the same blot, stripped (62.5 mM Tris pH 6.8, 2% SDS, 0.8% DTT) and probed with the Mek and Erk antibodies. Blots were stained using the enhanced chemiluminescence system (Thermo Fisher Scientific).

BSp73ASs6 tumors = conditions: rat
Method: In vivo imaging of the subcutaneously grown BSp73ASs6 tumors in BD10 or BDX rats was performed using the near infrared fluorescence (NIRF)-imaging system Optix MX2 (ART, Montreal, Canada) as described earlier (Napp et al., Int J Cancer (2010), 127:1958-1974). To avoid autofluorescence of fur, rats were shaved around the tumor prior to imaging. Subsequently, animals were anesthetized using 2% isoflurane and gently fixed on the devices' heated plate for the entire time of data acquisition. To reduce fluorescence background, rats were fed with chlorophyll-reduced food (Provimi Kliba AG, Kaiseraugst, Switzerland) for one week prior NIRF imaging. All in vivo analyses were preceded by native scans of animals without any injection of the fluorescent probe. […] The rat 11mer had the sequence [sequence] (SEQ ID No.: 12), the mouse 11mer had the sequence [sequence] (SEQ ID No.: 13) and the human 11mer had the sequence [sequence] (SEQ ID No.: 14). All peptides were labeled with the fluorescent dye DY681. Data were acquired at the indicated time after injection of the peptides. For ex vivo monitoring animals were sacrificed after 24 hrs after peptide injection and tumor and organs of interest were scanned ex vivo using Optix MX2.
DY681 fluorescence was measured using excitation at 670 nm in combination with a 700 nm long-pass emission filter. […] Data sets were analyzed with OptiView (ART).

Met and ERK [2] = assay: HGF induced activation of Met and ERK in L3.6pl cells (Western blot); type: cell-based, human; conditions: L3.6pl cells induced with HGF (FIG. 5A right)
Method: as §2

L3.6pl cells = assay: Staining of L3.6pl cells with DY681-labeled peptides; type: cell-based, human; conditions: DY681 labeled peptide
Method: as §1

| Substance | binding to BSp73ASs6 cells in tissue culture (BSp73ASs6 cells) | fluorescence / accumulation in the orthotopic L3.6pl tumor in vivo (L3.6pl tumors) | inhibition of Met activation by DY681 labeled peptide (Met and ERK [1]) | other results |
| --- | --- | --- | --- | --- |
| A-R-W-H-A (ARWHA) [pentapeptide with N and E mutated to A] |  |  |  | Met activation (Met): capable of abrogating Met activation |
| WFENEWQGKNP [rv6 pep Dy681] | bound to BSp73ASs6 cells in tissue culture | No fluorescence was detected | inhibited Met activation | fluorescence in excised tumors and lungs ex vivo (BSp73ASs6 tumors): could only be detected in tumors and in specific areas of the lungs |
| WFGNRWHEGYR [DY681 human v6 peptide, human v6 11mer labeled with DY681] |  | accumulated specifically in the tumor |  | inhibition of Met activation by DY681 labeled peptide (Met and ERK [2]): inhibited Met activation in L3.6pl cells; binding to L3.6pl cells in cell culture (L3.6pl cells): bound to these cells in cell culture; ex vivo binding to primary tumors, livers (L3.6pl tumors; organs excised 24 h after injection): binding not only to primary tumors but also to areas of the liver |
| WFQNGWQGKNP [mv6 pep Dy681, mouse v6 11mer labeled with DY681, control, reference compound] | not the DY681-labeled mouse v6 peptide bound to BSp73ASs6 cells |  | not the mouse peptide inhibited Met activation |  |
